Laboratory results as given in US20120021519A1, “EFFICIENT INDUCTION OF PLURIPOTENT STEM CELLS USING SMALL MOLECULE COMPOUNDS” (PRESIDENTS AND FELLOWS OF HARVARD COLLEGE, priority 2008, published 2012).
Several values for one entry are separate records, joined by “and”; a condition that tells them apart may be missing. Equal values may be shown once. Entries after “also recorded” stand apart in the source; their conditions may differ. Read-outs that look alike come from different tables or passages of the source.

How the values were obtained:
[1] = tested on: Oct4, Klf4, cMyc, and Sox2-infected MEFs; assay: Reprogramming efficiency with all four factors; assay type: cell-based, mouse
Protocol: (§1) Moloney-based retroviral vectors (pMXs) expressing the murine complementary DNAs of Oct4, Sox2, c-Myc, and Klf4 were obtained from Addgene. These plasmids were transfected separately into individual populations of Plat-E packaging cells using Fugene 6, with 27 μl of Fugene 6 and 9 μg of DNA per 10 cm dish of Plat-E cells. Viral supernatants were obtained 48-72 hours post-transfection, filtered through a 0.22 μm filter, diluted 1:1 in MEF growth media, and supplemented with polybrene at a final concentration of 5 μg/ml. The supernatants for the four factors were mixed in an equimolar ratio, and media was used in place of a factor when it was omitted from the infection. MEFs were infected with two to three pools of viral supernatant during a 72-hour period. The first day that viral supernatant was termed “day 1 post-infection.”
(§2) Retroviral infection and compound or antibody treatment was performed as in the original chemical screen. To quantify the numbers of GFP+colonies produced in
(§3) different conditions, the number of colonies in each well was counted and at least 2 different wells were counted and averaged. Concentrations of compounds and antibodies were the following: VPA (Sigma)-2 mM, RepSox (Calbiochem)-25 μM, E-616451 (Calbiochem)-3 μM, EI-275 (Biomol)-3 SB-431542 (Sigma)-25 μM, TgfβIIspecific antibody (R&D Systems, AB-12-NA)-10 μg/ml, pan-Tgβ antibody (R&D Systems, AB-100-NA)-10 μg/ml. Unless otherwise noted, all chemical treatments were continuous from initial administration at day 4-5 post-infection until GFP+colonies were scored. Fresh chemical was added at each media change.

[2] = tested on: Klf4, cMyc, and Sox2-infected Oct4::GFP MEFs; assay: Oct4 replacement: Oct4::GFP+ colonies in Klf4, cMyc, Sox2-infected MEFs; assay type: cell-based, mouse
Protocol: as §1
(§4) On day 4 post-infection, infected MEFs were trypsinized and re-seeded on irradiated feeders in 96-well plates at 2000 cells/well and cultured in mouse ES cell media (Knockout DMEM supplemented with 15% Hyclone FBS, L-glutamine, penicillin/streptomycin, nonessential amino acids, β-mercaptoethanol, and 1000 U/ml LIF). The next day, compound stock solutions diluted in DMSO and, where applicable, VPA (Sigma), were added at a final concentration of 1 μM and 2 mM, respectively. VPA was removed after 1 week, and compound was re-applied every other day with each media change. Plates were scored for GFP+colonies after 11 of compound treatment.
The inventors re-iterated their screen to find small molecules that could replace Oct4 (FIG. 27A). The inventors modified their approach slightly and screened in normal mES culture media containing a higher concentration of VPA (2 mM). After transducing 7500 MEFs with the four reprogramming transgenes and treating with VPA, the inventors observed only ˜125 GFP+ colonies (FIG. 27C). […] Therefore we opted to continue the screen under these conditions.
Following transduction with only Klf4, cMyc, and Sox2, 2000 MEFS were cultured for 25 days in the presence of VPA and each compound from the chemical library (FIG. 27A). […] Additionally, Ropivacaine, a compound that both antagonizes Na^+-channels and that also activates p38 mitogen-activated protein kinase (MAPK)(25)(FIG. 27B), induced more than 10 colonies that had mES-like morphologies, but were not GFP+(FIG. 27C).

[3] = tested on: MEFs transduced with Oct4, Klf4, and Sox2; assay: cMyc replacement: Oct4::GFP+ colonies in the absence of cMyc; assay type: cell-based, mouse
Protocol: as §1, §2
different conditions, the number of colonies in each well was counted and at least 2 different wells were counted and averaged. […] Unless otherwise noted, all chemical treatments were continuous from initial administration at day 4-5 post-infection until GFP+colonies were scored. […]

[4] = tested on: Oct4, Klf4, and cMyc-infected Oct4::GFP MEFs; assay: Sox2 replacement: Oct4::GFP+ colony formation in Oct4, Klf4, cMyc-infected MEFs; assay type: cell-based, mouse
Protocol: MEFs were derived from E12.5 embryos hemizygous for the Oct4::GFP transgenic allele. Gonads and internal organs were removed before processing the embryos for MEF isolation. MEFs were grown in DMEM supplemented with 10% FBS and penicillin/streptomycin. Low passage (up to passage 3) MEFs were used for generation of iPS cells.
as §1, §4
Infections and VPA/compound addition was done as in the original chemical screen, and wells were scored for GFP+ colonies on day 25 after compound addition.
as §2, §3

Tgf-β signaling = details: reference 32; cited from earlier work
Nanog = Nanog expression in partially reprogrammed intermediate cell lines; assay type: cell-based, mouse; details: lines OKM 10 and OKMS 7, 48 hours
Protocol: Cells were grown to near confluence on an irradiated layer and RNA was isolated with Trizol (Invitrogen). RNA was amplified and labeled with biotin using the Illumina Total Prep RNA Amplification Kit from Ambion, hybridized to Illumina Whole-Genome Expression BeadChips (MouseRef-8), and analyzed by an Illumina Beadstation 500. All lines were analyzed in biological duplicate or triplicate. Data were processed using Resolver software.

[5] = tested on: Oct4, cMyc and Sox2-infected Oct4::GFP MEFs; assay: Klf4 replacement: Oct4::GFP+ colonies in Oct4, cMyc, Sox2-infected MEFs; assay type: cell-based, mouse
Protocol: as §1
as §4, with “VPA was removed after 1 week, and compound was re-applied every other day with each media change.” left out, “treatment. […]” for “treatment.”

[6] = tested on: stable Oct4::GFP-negative intermediate cell lines (OKMS); assay: Chemical reprogramming of stable intermediate cell lines from Oct4, Klf4, cMyc, Sox2 MEFs; assay type: cell-based, mouse
Protocol: (§5) Oct4::GFP-negative colonies in Oct4, Klf4, and cMyc or Oct4, Klf4, cMyc, and Sox2-infected MEF cultures were picked, plated on irradiated feeders, and single colonies were picked after 1 week. The resulting cell lines were passaged with trypsin and grown in mES media on feeders until passage 4, at which time they were treated with RepSox (25 μM), AZA (500 μM), or both for 48 hours. Oct4::GFP+colonies were scored 12 days after the beginning of chemical treatment.

[7] = tested on: stable Oct4::GFP-negative intermediate cell lines (OKM); assay: Chemical reprogramming of stable intermediate cell lines from Oct4, Klf4, cMyc MEFs; assay type: cell-based, mouse
Protocol: as §5

## CCCCN1CCCCC1C(=O)Nc1c(C)cccc1C (stereo not drawn) [Bupivacaine]
[1]
  effect on reprogramming efficiency with all four iPS factors: not enhanced
[1]; listed as Bupivocaine
  effect on reprogramming efficiency with all four iPS factors: do not increase the efficiency of reprogramming
[2]; larger scale
  Oct4::GFP+ colonies in the absence of VPA: independently induced GFP+colonies

## NC(=O)c1ccc(-c2nc(-c3ccc4c(c3)OCO4)c(-c3ccccn3)[nH]2)cc1 [SB431542, 4-(5-benzo[1,3]dioxol-5-yl-4-pyridin-2-yl-1H-imidazol-2-yl)-benzamide]
[1]
  effect on reprogramming efficiency with all four iPS factors: do not increase the efficiency of reprogramming
[3]
  reprogramming efficiency in the absence of cMyc: increased reprogramming efficiency
[4]; 25 μM
  GFP+ colonies per 7500 cells plated: −10
Tgf-β signaling
  concentration required for complete Tgf-β inhibition: greater than 1 μM
Nanog
  Nanog expression versus untreated control: strongly increased

## O=C(O)c1cc(NCc2cc(O)ccc2O)ccc1O [HDBA, Lavendustin C]
[1]
  effect on reprogramming efficiency with all four iPS factors: do not increase the efficiency of reprogramming
[5]; 2000 cells per well, 25 days, scored after 30 days
  GFP+ colonies with mES-like morphology in Klf4 replacement screen: hit compounds
[5]; larger scale validation
  induction of GFP+ colonies and dependence on VPA: both with and without VPA

## CCCC(CCC)C(=O)O [VPA, valproic acid]
[1]
  increase in the number of GFP+ colonies over the untreated control: greater than 10 fold
[1]; four transgenes + VPA
  GFP+ colonies per 7500 MEFs in medium with VPA: 100-200 and ~125
[4]; 1500 MEFs, VPA only, no Sox2
  GFP+ colonies with VPA alone: no GFP+colonies were observed

## CCCN1CCCC[C@H]1C(=O)Nc1c(C)cccc1C [Ropivacaine]
[1]
  effect on reprogramming efficiency with all four iPS factors: do not increase the efficiency of reprogramming
[2]; VPA, then 5-aza-cytidine for 48 hours
  colonies becoming Oct4::GFP+ after added 5-aza-cytidine: majority of these colonies became Oct4::GFP+
[2]; larger scale
  formation of GFP+ colonies, dependence on VPA and 5-aza-cytidine: only when used in conjunction with VPA and 5-aza-cytidine
[2]; screen with VPA
  colonies with mES-like morphologies but not GFP+: more than 10

## Nc1ncn([C@@H]2O[C@H](CO)[C@@H](O)[C@H]2O)c(=O)n1 [AZA, 5-aza-cytidine]
[6]; 48 hours treatment and 12 subsequent days
  Oct4::GFP expression in RepSox-responsive OKMS lines: none of the RepSox-responsive cell lines expressed Oct4::GFP
[6]; 48 hours treatment at passage 4
  lines reprogrammed out of 9 OKMS intermediate lines: one
[7]; 48 hours treatment
  lines reprogrammed out of 10 OKM intermediate lines: none
[7]; 48 hours, then 14 days culture
  Oct4::GFP+ colonies in line OKM 10: Neither chemical induced formation of Oct4::GFP+colonies

## COC1=C[C@@H]2[C@@H]3Cc4ccc(OC)c(O)c4C2(CCN3C)CC1=O [Sinomenine]
[1]; listed as Simomenine
  effect on reprogramming efficiency with all four iPS factors: not enhanced
[1]; listed as Sinimonine
  effect on reprogramming efficiency with all four iPS factors: do not increase the efficiency of reprogramming
[2]; 2000 MEFs, 25 days, VPA 2 mM
  GFP+ colonies in Oct4 replacement screen: induced GFP+colonies
[2]; larger scale
  Oct4::GFP+ colonies in the absence of VPA: failed to induce Oct4::GFP+colonies
  Oct4::GFP+ colonies in the presence of VPA: induced Oct4::GFP+colonies

## c1ccc(-c2n[nH]cc2-c2ccnc3ccccc23)nc1 [E-616451, [3-(Pyridin-2-yl)-4-(4-quinoyl)]-1H-pyrazole]
[1]
  effect on reprogramming efficiency with all four iPS factors: not enhanced; also recorded: do not increase the efficiency of reprogramming
[4]; 1500 MEFs, + VPA, E-616452 25 μM, E-616451 3 μM, EI-275 3 μM
  rate of GFP+ colony formation with VPA: comparable to normal retroviral transduction with Sox2
[4]; 2000 cells per well, compound 1 μM, 2 mM VPA for first 7 days, scored after 16 days
  GFP+ colonies with mES-like morphology in primary screen: induced GFP+colonies
[4]; E-616451 and EI-275 +VPA
  concentration at which found to be most potent in reprogramming: 3 µM
[4]; compound titration, 2 mM of VPA in all wells (FIG. 7)
  optimal concentration for Oct4::GFP+ colony formation: greater than 1 μM
[4]; no VPA
  GFP+ colonies in the absence of VPA: could not induce the appearance of GFP+colonies
